Test results published in patent publication US20250263416A1, “SPPL2a INHIBITORS” (Incyte Corporation, priority 2024, published 2025).
Entries after “also recorded” stand apart in the source; their conditions may differ.

Key:
human SPPL2a = biological target: T1, human SPPL2a (Homo sapiens, UniProt Q8TCT8); experiment: Nuclear translocation imaging assay for human SPPL2a (SPPL2a reporter U2OS cell line); type: cell-based; conditions: U2OS reporter cells, 24 h incubation
T1 construct: expressed in transfected cells; host or cells: U2OS (SPPL2a reporter cell line)
T1 sequence (Q8TCT8 26-520): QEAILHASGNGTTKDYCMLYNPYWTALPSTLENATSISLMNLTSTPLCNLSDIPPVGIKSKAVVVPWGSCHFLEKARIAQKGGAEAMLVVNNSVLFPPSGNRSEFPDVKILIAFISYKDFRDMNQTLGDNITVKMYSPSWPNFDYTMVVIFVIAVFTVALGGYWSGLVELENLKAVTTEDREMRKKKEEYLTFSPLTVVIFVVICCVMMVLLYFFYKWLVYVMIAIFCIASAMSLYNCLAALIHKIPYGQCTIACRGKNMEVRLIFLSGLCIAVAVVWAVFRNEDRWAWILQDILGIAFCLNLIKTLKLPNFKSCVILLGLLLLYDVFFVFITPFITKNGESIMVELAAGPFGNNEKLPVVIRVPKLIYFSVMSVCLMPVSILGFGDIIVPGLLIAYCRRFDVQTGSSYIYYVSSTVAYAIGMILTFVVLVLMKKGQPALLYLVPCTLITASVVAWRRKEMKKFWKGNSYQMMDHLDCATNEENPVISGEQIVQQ
Description: The nuclear translocation imaging assays for human SPPL2a were performed using an SPPL2a reporter U2OS cell line as previously described (Velcicky et al 2018, Zhang et al 2017). These cells stably express human SPPL2a and a doxycycline inducible eGFP TNFα (aa 1-76) NTF fusion protein (SPPL2a substrate). Both Example 1 and Example A were added at indicated concentrations and cells were incubated for 24 h, washed, and fixed. Nuclei were stained with DAPI. Images were acquired on a confocal fluorescence microscope system LSM-800 (Carl Zeiss). Image data was analyzed by using mid-section from Z-stack images of at least 10 individual cells per sample. All data is presented as mean+SEM. Statistical significance was calculated with the ANOVA test using GraphPad Prism™ 10.

[1] = In vivo epimerization and PK, statements covering all three preclinical models; set-up: species or system Sprague Dawley rats, beagle dogs, cynomolgus monkeys
Description: These factors may lead to accumulation and potenial toxicity. The effect on epimerization by substitution at the chiral carbon was tested by comparing Example A, Example 1, and Example 29 in the following preclinical in vivo pharmacokinetic models: Sprague Dawley rats, beagle dogs, and cynomolgus monkeys.
Two groups of male Sprague Dawley rats (n=3 each) received either a single 10 mg/kg PO dose of Example A or Example 1 in a vehicle consisting of 0.5% methylcellulose in water. Blood samples were collected at 0.25, 0.5, 1, 2, 4, and 6 hours postdose.
Male Sprague Dawley rats (n=3 each) received a single 3 mg/kg PO dose of Example 29 in a vehicle consisting of 5% dimethylacetamide (DMAC) in 50 mM citrate buffer w/0.5% methylcellulose. Blood samples were collected at predose, 0.25, 0.5, 1, 2, 4, 6, 8, 12, and 24 hours postdose.
(§1) Three groups of male cynomolgus monkeys (n=2 each) received either a single 3 mg/kg PO dose of Example A, Example 1, or Example 29 in a vehicle consisting of 5% dimethylacetamide (DMAC) in 50 mM citrate buffer w/0.5% methylcellulose. Blood samples were collected at predose, 0.25, 0.5, 1, 2, 3, 4, 6, 8, 12, and 24 hours postdose.
as §1, with “beagle dogs” for “cynomolgus monkeys”, “12, 24” for “12,”, “48” for “24”
All blood samples were collected using EDTA as the anticoagulant and centrifuged to obtain plasma. Plasma concentrations of Example A, Example 1, and their respective diastereomers were determined under non-GLP conditions using standard reverse phase LC-MS/MS bioanalytical methods. The individual plasma concentration-time data was used to determine the area under the curve (AUC) values using GraphPad Prism (v9.3.1).

MoDCs = experiment: DC-maturation assay (monocyte-derived dendritic cells from human PBMCs); type: cell-based; conditions: 24 h
Description: Dendritic cells are crucial players in the antigen presentation process and inflammation. […] To validate the functional relevance of SPPL2a inhibitor, a DC-maturation assay was utilized. Human PBMCs were isolated from fresh blood using Histoplaque gradients and plated overnight at 37° C. to allow monocytes to adhere. Non-adherent cells were washed off the following day and DC-differentiation media containing GM-CSF and IL-4 was added and incubated for 5 d. Immature MoDCs were separated and washed. A cocktail of maturation media with SPPL2a inhibitor (at indicated concentrations) was added to the wells and cells were incubated for 24 h. Supernatants were collected and processed to measure TNFα and IL-12 by ELISA. All data is presented as mean+SEM. For comparison of more than two groups, ANOVA was used. All statistical analysis was performed using GraphPad Prism™ 10.

[2] = system: experimental autoimmune encephalomyelitis (EAE) mouse model; experiment: Experimental autoimmune encephalomyelitis (EAE) mouse model; type: in vivo, mice; conditions: for disease score (EAE severity score): compared to vehicle
Description: The EAE model was used to evaluate the potential of SPPL2a inhibition in an in vivo mouse model of autoimmune disease. In this study, EAE was induced in female mice, aged 7-9 weeks, using an EAE induction kit (EK-2160, Hooke Labs) containing human recombinant MOG 1 125 antigen emulsified in CFA. EAE severity score was measured on a scale of 0-6 as per the IACUC approved protocol for 20 days. Mice were treated orally with the SPPL2a inhibitor Example A at 15 mg/kg and 30 mg/kg twice daily (first dose given on the same day prior to immunization). Animals were euthanized and tissues, plasma, and serum were collected for further analysis.
Anti-mouse MOG antibodies were measured in the serum of mice using quantitative ELISA kit (AS-55156, AnaSpec). […] All data is presented as mean+SEM. For comparison of more than two groups, ANOVA was used. All statistical analysis was performed using GraphPad Prism™ 10 or higher.

## CNC(=O)c1nc(C)c(C(=O)NC[C@@H](C)C(=O)N[C@@H]2C(=O)N3CCCN3Cc3ccccc32)s1 [Example A, N^2,4-dimethyl-N^5—((R)-2-methyl-3-oxo-3-(((S)-11-oxo-2,3,10,11-tetrahydro-1H,5H-benzo[d]pyrazolo[1,2-a][1,2]diazepin-10-yl)amino)propyl)thiazole-2,5-dicarboxamide]
Human SPPL2a
  inhibition of nuclear translocation of TNFα-GFP: inhibited; also recorded: comparable and significant TNFα-GFP inhibition of nuclear translocation
[1]; rat, monkey and dog models, PO
  in vivo epimerization at the chiral carbon in the 7-membered ring: exhibits epimerization in vivo; also recorded: observed in all three models
[1]; rats, monkeys, dogs
  exposures and PK (other than epimerization) across species: consistent
MoDCs; MoDC supernatants, ELISA
  IL-12 secretion: significantly decreased
  TNFα secretion: significantly decreased
MoDCs; compared to the stimulation only condition
  MoDC maturation: significantly decreased
[2]; 15 mg/kg
  IgG2a level: Trends to lower Ig titers
  IgG2b level: Trends to lower Ig titers
  IgM level: Trends to lower Ig titers
[2]; 15 mg/kg orally twice daily
  disease score (EAE severity score): significant reduction
[2]; 30 mg/kg
  IgA: lower total IgG1 and IgA trend
  IgG2a titer: Significant reduction
  IgG2b titer: Significant reduction
  IgG3 titer: Significant reduction
  IgM titer: Significant reduction
  total IgG1: lower total IgG1 and IgA trend
[2]; 30 mg/kg orally twice daily
  disease score (EAE severity score): significant reduction
[2]; EAE induced mice
  total Ig levels: significantly inhibited
[2]; oral, twice daily, starting at day 13 of the treatment
  clinical signs of EAE: significantly reduced
[2]; quantitative ELISA
  anti-MOG antibodies in serum: significant reduction
